Reference: patent publication US5187188A, “Oxazole carboxylic acid derivatives” (Bristol-Myers Squibb Company, priority 1992, dated 1993)
Converted amounts (≈) assume the structure as drawn. Where a name gives a salt, the structure may show the parent alone.

System: human platelets
Assay: In vitro inhibition of ADP-induced human platelet aggregation in platelet-rich plasma (aggregometer method of Born)
Type: cell-based
Conditions: human PRP, 0.5 mcg/mL ADP, about three minutes preincubation
Description: The aggregometer method of Born, G. V. R., J. Physiol., (London), 162, 67-68, (1962) as modified by Mustard, J. F., et al., J. Lab. Clin. Med., 64, 548-599, (1964) Was used to assess the in vitro activity of the various compounds as to the inhibition of adenosine diphosphate (ADP) and collagen-induced platelet aggregation. The human volunteer donor's arm is cleansed with 70% ethyl alcohol. A sterile 20 ml syringe and needle are used to withdraw 20 ml of blood. The blood is immediately added to a test tube containing 3.8% sodium citrate to prevent clotting (1 part citrate to 9 parts blood).
Platelet rich plasma (PRP) was separated by centrifugation for 10 minutes at 1000 rpm (140×g) from citrated (3.8%) human blood. All glassware used for preparation of PRP is silicon treated. ADP in final concentration of 0.5 mcg/mL or 0.05 mL of a collagen suspension prepared according to the method described by Evans, G., et al., J. Exp. Med., 128, 877-894, (1968) was used to induce aggregation. The various compounds tested were dissolved in dimethylsulfoxide (DMSO) so that 5 mcl added to the platelet rich plasma would yield the desired test concentration. Vehicle control trials were done and compared with aggregation induced in platelet rich plasma containing various concentrations of the test compounds. Dose response curves were obtained and Inhibitor Concentration (IC50) values calculated.
The compounds listed in Table 1 were evaluated as inhibitors of human platelet aggregation in vitro in platelet-rich-plasma (PRP) using […] ADP as the inducing agent. The PRP was incubated with drug for about three minutes prior to the addition of the agonist. The extent of aggregation in the presence of various concentrations of test compounds was compared with that in vehicle controls. Dose-response curves were obtained and IC50 values determined.

SMILES	IC50 [µg/mL]
CCOC(=O)C(=Cc1cccc(OCC(=O)OC(C)(C)C)c1)c1nc(-c2ccccc2)c(-c2ccccc2)o1 [Compound 7a, (E) and (Z)-Ethyl α-[[3-[[(1,1-dimethylethoxy)carbonyl]methoxyl]phenyl]methylene]-4,5-diphenyl-2-oxazoleacetate]	> 32
CCOC(=O)/C(=C\c1cccc(OCC(=O)OC)c1)c1nc(-c2ccccc2)c(-c2ccccc2)o1 [Compound 7b, (Z)-Ethyl-α-[[3-(2-methoxy-2-oxoethoxy)phenyl]methylene]-4,5-diphenyl-2-oxazole acetate]	10
CCOC(=O)/C(=C/c1cccc(OCC(=O)OC)c1)c1nc(-c2ccccc2)c(-c2ccccc2)o1 [Compound 7c, (E)-Ethyl α-[[3-(2-methoxy-2-oxoethoxy)phenyl]methylene]-4,5-diphenyl-2-oxazole acetate]	1
COC(=O)COc1cccc(C=C(C(=O)OC)c2nc(-c3ccccc3)c(-c3ccccc3)o2)c1 [Compound 7d, Methyl (E) and (Z) α-[[3-(2-methoxy-2-oxoethoxy)phenyl]methylene]-4,5-diphenyl-2-oxazoleacetate]	0.5 (≈ 1.06 µM)
CC(C)OC(=O)C(=Cc1cccc(OCC(=O)OC(C)(C)C)c1)c1nc(-c2ccccc2)c(-c2ccccc2)o1 [Compound 7e, (E) and (Z)-1-methylethyl α-[[3-[2-(1,1,-dimethylethoxy)-2-oxoethoxy]phenyl]-methylene]-4,5-diphenyl-2-oxazoleacetate]	> 32
COC(=O)COc1cccc(C=C(C(=O)OC(C)C)c2nc(-c3ccccc3)c(-c3ccccc3)o2)c1 [Compound 7f, (E) and (Z) 1-Methylethyl α-[[3-[2-(methoxy-2-oxoethoxy)phenyl]methylene]-4,5-diphenyl-2-oxazoleacetate]	5 (≈ 10 µM)
COC(=O)COc1cccc(C=C(C(N)=O)c2nc(-c3ccccc3)c(-c3ccccc3)o2)c1 [Compound 7g, (E) and (Z) Methyl [3-[3-amino-2-(4,5-diphenyl)-2-oxazolyl]-3-oxo-1-propenyl]phenoxy]acetate]	2.5 (≈ 5.5 µM)
CNC(=O)C(=Cc1cccc(OCC(=O)OC)c1)c1nc(-c2ccccc2)c(-c2ccccc2)o1 [Compound 7h, (E) and (Z) Methyl [3-[2-(4,5-diphenyl-2-oxazolyl)-3-methylamino-3-oxo-propenyl]phenoxy]acetate]	1.3 (≈ 2.77 µM)
COC(=O)COc1cccc(/C=C(\C(=O)N(C)C)c2nc(-c3ccccc3)c(-c3ccccc3)o2)c1 [Compound 7i, (Z)-Methyl [3-[3-(dimethylamino)-2-(4,5-diphenyl-2-oxazolyl)-3-oxo-1-propenyl]phenoxy]acetate]	> 32
CCOC(=O)C(=Cc1cccc(OCC(=O)O)c1)c1nc(-c2ccccc2)c(-c2ccccc2)o1 [Compound 8a, (E) and (Z) Ethyl α-[[3-carboxymethoxy)phenyl]methylene]-4,5-diphenyl-2-oxazole acetate]	0.17
O=C(O)COc1cccc(C=C(C(=O)O)c2nc(-c3ccccc3)c(-c3ccccc3)o2)c1 [Compound 8b]	9 (≈ 20.4 µM)
CNC(=O)C(=Cc1cccc(OCC(=O)O)c1)c1nc(-c2ccccc2)c(-c2ccccc2)o1 [Compound 8d, (E) and (Z) [3-[2-(4,5-Diphenyl-2-oxazolyl)-3-(methylamino)-3-oxo-propenyl]phenoxy]acetic acid]	7 (≈ 15.4 µM)
CN(C)C(=O)/C(=C\c1cccc(OCC(=O)O)c1)c1nc(-c2ccccc2)c(-c2ccccc2)o1 [Compound 8e, (Z)-[3-[3-(Dimethylamino)-2-(4,5-diphenyl-2-oxazolyl)-3-oxo-1-propenyl]phenoxy]acetic acid]	5.8 (≈ 12.4 µM)
CCOC(=O)C(Cc1cccc(OCC(=O)OC(C)(C)C)c1)c1nc(-c2ccccc2)c(-c2ccccc2)o1 (stereo not shown) [Compound 9a]	> 32
CCOC(=O)C(Cc1cccc(OCC(=O)OC)c1)c1nc(-c2ccccc2)c(-c2ccccc2)o1 (stereo not drawn) [Compound 9b, Ethyl α-[(3-[(methoxycarbonyl)methoxyl]phenyl]-methyl]-4,5-diphenyl-2-oxazole acetate]	0.75
COC(=O)C(Cc1cccc(OCC(=O)OC(C)(C)C)c1)c1nc(-c2ccccc2)c(-c2ccccc2)o1 (stereo not drawn) [Compound 9c, Methyl α-[[3-(2-(1,1-dimethylethoxy-2-oxoethoxy)phenyl]methyl]-4,5-diphenyl-2-oxazole acetate]	> 32
COC(=O)COc1cccc(CC(C(=O)OC)c2nc(-c3ccccc3)c(-c3ccccc3)o2)c1 (stereo not drawn) [Compound 9d, Methyl α-[[3-(2-methoxy-2-oxoethoxy)phenyl]methyl]-4,5-diphenyl-2-oxazole acetate]	0.6

SMILES	IC50 [µg/mL]
CC(C)OC(=O)C(Cc1cccc(OCC(=O)OC(C)(C)C)c1)c1nc(-c2ccccc2)c(-c2ccccc2)o1 (stereo not drawn) [Compound 9e, 1-Methylethyl α-[[3-[2-(1,1-dimethylethoxy)-2-oxoethoxy)phenyl]methyl]-4,5-diphenyl-2-oxazoleacetate]	> 32
COC(=O)COc1cccc(CC(C(=O)OC(C)C)c2nc(-c3ccccc3)c(-c3ccccc3)o2)c1 (stereo not shown) [Compound 9f]	3.5 (≈ 7.01 µM)
CC(C)(C)OC(=O)COc1cccc(CC(C(N)=O)c2nc(-c3ccccc3)c(-c3ccccc3)o2)c1 (stereo not shown) [Compound 9g, (t-Butyl [3-3-amino-2-(4,5-diphenyl-2-oxazolyl)-3-oxopropyl]phenoxy acetate]	> 32
COC(=O)COc1cccc(CC(C(N)=O)c2nc(-c3ccccc3)c(-c3ccccc3)o2)c1 (stereo not drawn) [Compound 9h, Methyl[3-[α-Amino-2-(4,5-diphenyl-2-oxazolyl)-3-oxopropyl]phenoxy]acetic acid]	> 32
CNC(=O)C(Cc1cccc(OCC(=O)OC)c1)c1nc(-c2ccccc2)c(-c2ccccc2)o1 (stereo not shown) [Compound 9i, Methyl[3-[2-(4,5-diphenyl-2-oxazolyl)-3-(methylamino)-3-oxo-propyl]phenoxy]acetate]	3.5 (≈ 7.44 µM)
COC(=O)COc1cccc(CC(C(=O)N(C)C)c2nc(-c3ccccc3)c(-c3ccccc3)o2)c1 (stereo not shown) [Compound 9j]	16 (≈ 33 µM)
CCOC(=O)C(Cc1cccc(OCC(=O)O)c1)c1nc(-c2ccccc2)c(-c2ccccc2)o1 (stereo not drawn) [Compound 10a, Ethyl α-[[3-hydroxy-2-oxoethoxyl]phenyl]methyl]-4,5-diphenyl-2-oxazole ace tate]	0.06 (≈ 0.127 µM)
O=C(O)COc1cccc(CC(C(=O)O)c2nc(-c3ccccc3)c(-c3ccccc3)o2)c1 (stereo not drawn) [Compound 10b, α-[[3-(2-Hydroxy-2-oxoethoxy)phenyl]methyl]-4,5-diphenyl-2-oxazoleacetic acid, disodium salt]	7
COC(=O)C(Cc1cccc(OCC(=O)O)c1)c1nc(-c2ccccc2)c(-c2ccccc2)o1 (stereo not drawn) [Compound 10c, Methyl α-[[3-(2-hydroxy-2-oxoethoxy)phenyl]methyl]-4,5-diphenyl-2-oxazole acetate]	0.037
CC(C)OC(=O)C(Cc1cccc(OCC(=O)O)c1)c1nc(-c2ccccc2)c(-c2ccccc2)o1 (stereo not shown) [Compound 10d]	0.6 (≈ 1.24 µM)
NC(=O)C(Cc1cccc(OCC(=O)O)c1)c1nc(-c2ccccc2)c(-c2ccccc2)o1 (stereo not shown) [Compound 10e, [3-[3-Amino-2-(4,5-diphenyl-2-oxazolyl)-3-oxopropyl]phenoxy]acetic acid]	1.7 (≈ 3.84 µM)
CNC(=O)C(Cc1cccc(OCC(=O)O)c1)c1nc(-c2ccccc2)c(-c2ccccc2)o1 (stereo not shown) [Compound 10f, [3-[2-(4,5-Diphenyl-2-oxazolyl)-3-(methylamino)-3-oxopropyl]phenoxy]acetic acid]	0.32 (≈ 0.701 µM)
CN(C)C(=O)C(Cc1cccc(OCC(=O)O)c1)c1nc(-c2ccccc2)c(-c2ccccc2)o1 (stereo not shown) [Compound 10g, [3-[3-(Dimethylamino)-2-(4,5-diphenyl-2-oxazolyl)-3-oxopropyl]phenoxy]acetic acid]	1.7 (≈ 3.61 µM)
COC(=O)COc1cccc(/C=C(\C#N)c2nc(-c3ccccc3)c(-c3ccccc3)o2)c1 [Compound 16, (E)-Methyl[3-[2-cyano-2-(4,5-diphenyl-2-oxazolyl)ethenyl]phenoxy]acetate]	8 (≈ 18.3 µM)
N#C/C(=C\c1cccc(OCC(=O)O)c1)c1nc(-c2ccccc2)c(-c2ccccc2)o1 [Compound 17, (E)-[3-[2-cyano-2-(4,5-diphenyl-2-oxazolyl)ethenyl]phenoxy]acetic acid]	0.11 (≈ 0.26 µM)
COC(=O)COc1cccc(CC(C#N)c2nc(-c3ccccc3)c(-c3ccccc3)o2)c1 (stereo not shown) [Compound 18]	0.36 (≈ 0.821 µM)
N#CC(Cc1cccc(OCC(=O)O)c1)c1nc(-c2ccccc2)c(-c2ccccc2)o1 (stereo not shown) [Compound 19, [3-[2-Cyano-2-(4,5-diphenyl-2-oxazolyl)ethyl]phenoxy]acetic acid]	0.2 (≈ 0.471 µM)
